Measured values as given in patent US20050004134A1, “Thiazole derivative and pharmaceutical use thereof” (priority 2001, published 2005).

Row | Structure (SMILES) | melting point [°C]
1 | CCCn1nc(-c2sc(N)nc2-c2ccccc2)ccc1=O [Example 86, 6-(2-Amino-4-phenyl-1,3-thiazol-5-yl)-2-propyl-3(2H)-pyridazinone] | 224 to 226
2 | COCCn1nc(-c2sc(N)nc2-c2ccccc2)ccc1=O [Example 87, 6-(2-Amino-4-phenyl-1,3-thiazol-5-yl)-2-(2-methoxyethyl)-3(2H)-pyridazinone] | 208 to 209.5
3 | Nc1nc(-c2ccccc2)c(-c2ccc(=O)n(CC3CC3)n2)s1 [Example 88, 6-(2-Amino-4-phenyl-1,3-thiazol-5-yl)-2-(cyclopropylmethyl)-3(2H)-pyridazinone] | 204 to 206
4 | COC(=O)Cn1nc(-c2sc(N)nc2-c2ccccc2)ccc1=O [Example 89, Methyl [3-(2-amino-4-phenyl-1,3-thiazol-5-yl)-6-oxo-1 (6H)-pyridazinyl]acetate] | 190 to 193
5 | CC(=O)Cn1nc(-c2sc(N)nc2-c2ccccc2)ccc1=O [Example 90, 6-(2-Amino-4-phenyl-1,3-thiazol-5-yl)-2-(2-oxopropyl)-3(2H)-pyridazinone] | 216 to 219
6 | O=c1ccc(-c2sc(NCc3ccccc3)nc2-c2ccccc2)nn1Cc1ccccc1 [Example 92, 2-benzyl-6-[2-(benzylamino)-4-phenyl-1,3-thiazol-5-yl]-3(2H)-pyridazinone] | 163.5 to 165
7 | Nc1nc(-c2ccccc2)c(-c2ccc(=O)n(Cc3ccccc3)n2)s1 [Example 92, 6-(2-Amino-4-phenyl-1,3-thiazol-5-yl)-2-benzyl-3(2H)-pyridazinone] | 225 to 228
8 | C=CCn1nc(-c2sc(N)nc2-c2ccccc2)ccc1=O [Example 93, 2-Allyl-6-(2-amino-4-phenyl-1,3-thiazol-5-yl)-3(2H)-pyridazinone] | 212 to 215
9 | C=CCNc1nc(-c2ccccc2)c(-c2ccc(=O)n(CC=C)n2)s1 [Example 93, 2-allyl-6-[2-(allylamino)-4-phenyl-1,3-thiazol-5-yl]-3(2H)-pyridazinone] | 146 to 147
10 | CC(C)n1nc(-c2sc(NC=O)nc2-c2ccccc2)ccc1=O [Example 94, 5-(1-isopropyl-6-oxo-1,6-dihydro-3-pyridazinyl)-4-phenyl-1,3-thiazol-2-ylformamide] | 232 to 234
11 | CC(C)n1nc(-c2sc(NC(=O)OC(C)(C)C)nc2-c2ccccc2)ccc1=O [Example 95, tert-butyl 5-(1-isopropyl-6-oxo-1,6-dihydro-3-pyridazinyl)-4-phenyl-1,3-thiazol-2-ylcarbamate] | 198 to 199
12 | COCCNCc1ccc(C(=O)Nc2nc(-c3ccccc3)c(-c3ccc(=O)n(C(C)C)n3)s2)cc1 [Example 96, N-[5-(1-isopropyl-6-oxo-1,6-dihydro-3-pyridazinyl)-4-phenyl-1,3-thiazol-2-yl]-4-([(2-methoxyethyl)amino]methyl}benzamide] | 192 to 194
13 | CC(C)n1nc(-c2sc(NC(=O)c3ccc(CN4CCN(C)CC4)cc3)nc2-c2ccccc2)ccc1=O [Example 97, N-(5-(1-Isopropyl-6-oxo-1,6-dihydro-3-pyridazinyl)-4-phenyl-1,3-thiazol-2-yl]-4-[(4-methyl-1-piperazinyl)methyl]benzamide] | 224 to 227
14 | Cc1cccc(NC(=O)N(C)c2nc(-c3ccccc3)c(-c3ccc(=O)n(C(C)C)n3)s2)c1 [Example 99, N-[5-(1-isopropyl-6-oxo-1,6-dihydro-3-pyridazinyl)-4-phenyl-1,3-thiazol-2-yl]-N-methyl-N′-(3-methylphenyl)urea] | 157 to 158
15 | CC(C)n1nc(-c2sc(NC(=O)Cn3ccnc3)nc2-c2ccccc2)ccc1=O [Example 102, 2-(1H-Imidazol-1-yl)-N-[5-(1-isopropyl-6-oxo-1,6-dihydro-3-pyridazinyl)-4-phenyl-1,3-thiazol-2-yl]acetamide] | 160 to 161
16 | CC(C)n1nc(-c2sc(NC(=O)CNCc3ccccc3)nc2-c2ccccc2)ccc1=O [Example 103, 2-(Benzylamino)-N-[5-(1-isopropyl-6-oxo-1,6-dihydro-3-pyridazinyl)-4-phenyl-1,3-thiazol-2-yl]acetamide] | 144 to 145
17 | CC(C)n1nc(-c2sc(NC(=O)CN(C)CCc3ccccn3)nc2-c2ccccc2)ccc1=O [Example 111, N-[5-(1-Isopropyl-6-oxo-1,6-dihydro-3-pyridazinyl)-4-phenyl-1,3-thiazol-2-yl]-2-{methyl[2-(2-pyridinyl)ethyl]amino}acetamide] | 94 to 96

Row | Structure (SMILES) | melting point [°C]
18 | CC(C)n1nc(-c2sc(NC(=O)CNCCO)nc2-c2ccccc2)ccc1=O [Example 117, 2-[(2-Hydroxyethyl)amino]-N-[5-(1-isopropyl-6-oxo-1,6-dihydro-3-pyridazinyl)-4-phenyl-1,3-thiazol-2-yl]acetamide] | 142 to 144
19 | CC(C)n1nc(-c2sc(NC(=O)CN(C)CCN(C)C)nc2-c2ccccc2)ccc1=O [Example 118, 2-[(2-(Dimethylamino)ethyl)(methyl)amino]-N-[5-(1-isopropyl-6-oxo-1,6-dihydro-3-pyridazinyl)-4-phenyl-1,3-thiazol-2-yl]acetamide] | 155 to 157
20 | CC(C)n1nc(-c2sc(NC(=O)CNCc3cccnc3)nc2-c2ccccc2)ccc1=O [Example 120, N-[5-(1-Isopropyl-6-oxo-1,6-dihydro-3-pyridazinyl)-4-phenyl-1,3-thiazol-2-yl]-2-[(3-pyridinylmethyl)amino]acetamide] | 156 to 158
21 | COCCNCCC(=O)Nc1nc(-c2ccccc2)c(-c2ccc(=O)n(C(C)C)n2)s1 [Example 122, N-[5-(1-Isopropyl-6-oxo-1,6-dihydro-3-pyridazinyl)-4-phenyl-1,3-thiazol-2-Yl]-3-[(2-methoxyethyl)amino]propanamide] | 167 to 168
22 | CC(C)n1nc(-c2sc(NC(=O)CCN3CCOCC3)nc2-c2ccccc2)ccc1=O [Example 123, N-[5-(1-Isopropyl-6-oxo-1,6-dihydro-3-pyridazinyl)-4-phenyl-1,3-thiazol-2-yl]-3-(4-morpholinyl)propanamide] | 197 to 198
23 | CC(C)n1nc(-c2sc(NC(=O)CCNCc3ccccn3)nc2-c2ccccc2)ccc1=O [Example 124, N-[5-(1-Isopropyl-6-oxo-1,6-dihydro-3-pyridazinyl)-4-phenyl-1,3-thiazol-2-yl]-3-[(2-pyridinylmethyl)amino]propanamide] | 200 to 201
24 | CC(C)n1nc(-c2sc(NC(=O)CN3CCCCC3)nc2-c2ccccc2)ccc1=O [Example 132, N-[5-(1 Isopropyl-6-oxo-1,6-dihydro-3-pyridazinyl)-4-phenyl-1,3-thiazol-2-yl]-2-(1-piperidinyl)acetamide] | 189 to 190
25 | CC(C)n1nc(-c2sc(NC(=O)c3ccc(CN(C)CCN(C)C)cc3)nc2-c2ccccc2)ccc1=O [Example 137, 4-{[[2-(Dimethylamino)ethyl] (methyl)amino]methyl}-N-[5-(1-isopropyl-6-oxo-1,6-dihydro-3-pyridazinyl)-4-phenyl-1,3-thiazol-2-yl]benzamide] | 131 to 133
26 | CC(C)n1nc(-c2sc(NC(=O)c3ccc(CNCCO)cc3)nc2-c2ccccc2)ccc1=O [Example 138, 4-{[(2-Hydroxyethyl)amino]methyl}-N-[5-(1-isopropyl-6-oxo-1,6-dihydro-3-pyridazinyl)-4-phenyl-1,3-thiazol-2-yl]benzamide] | 111 to 113
27 | CC(C)n1nc(-c2sc(NC(=O)c3ccc(Cn4ccnc4)cc3)nc2-c2ccccc2)ccc1=O [Example 139, 4-(1H-Imidazol-1-ylmethyl)-N-[5-(1-isopropyl-6-oxo-1,6-dihydro-3-pyridazinyl)-4-phenyl-1,3-thiazol-2-yl]benzamide] | > 250
28 | CC(C)n1nc(-c2sc(NC(=O)c3ccc(CNCCN4CCOCC4)cc3)nc2-c2ccccc2)ccc1=O [Example 140, N-[5-(1-Isopropyl-6-oxo-1,6-dihydro-3-pyridazinyl)-4-phenyl-1,3-thiazol-2-yl]-4-({[2-(4-morpholinyl)ethyl]amino}methyl)benzamide] | 86 to 88
29 | CCN(CC)CCNCc1ccc(C(=O)Nc2nc(-c3ccccc3)c(-c3ccc(=O)n(C(C)C)n3)s2)cc1 [Example 142, 4-({[2-(Diethylamino)ethyl]amino}methyl)-N-[5-(1-isopropyl-6-oxo-1,6-dihydro-3-pyridazinyl)-4-phenyl-1,3-thiazol-2-yl]benzamide] | 158 to 160
30 | CC(C)n1nc(-c2sc(NC(=O)c3ccc(CNCCCN(C)C)cc3)nc2-c2ccccc2)ccc1=O [Example 143, 4-({[3-(Dimethylamino)propyl]amino}methyl)-N-[5-(1-isopropyl-6-oxo-1,6-dihydro-3-pyridazinyl)-4-phenyl-1,3-thiazol-2-yl]benzamide] | 108 to 110
31 | CC(C)n1nc(-c2sc(NC(=O)c3ccc(CNCCN4CCCCC4)cc3)nc2-c2ccccc2)ccc1=O [Example 144, N-[5-(1-Isopropyl-6-oxo-1,6-dihydro-3-pyridazinyl)-4-phenyl-1,3-thiazol-2-yl]-4-({[2-(1-piperidinyl)ethyl]amino}methyl)benzamide] | 134 to 136
32 | CCOCCNCc1ccc(C(=O)Nc2nc(-c3ccccc3)c(-c3ccc(=O)n(C(C)C)n3)s2)cc1 [Example 145, 4-{[(2-Ethoxyethyl)amino]methyl}-N-[5-(1-isopropyl-6-oxo-1,6-dihydro-3-pyridazinyl)-4-phenyl-1,3-thiazol-2-yl]benzamide] | 153 to 154
33 | CC(C)n1nc(-c2sc(NC(=O)c3ccc(CN(C)CCc4ccccn4)cc3)nc2-c2ccccc2)ccc1=O [Example 147, N-[5-(1-Isopropyl-6-oxo-1,6-dihydro-3-pyridazinyl)-4-phenyl-1,3-thiazol-2-yl]-4-({methyl[2-(2-pyridinyl)ethyl]amino}methyl)benzamide] | 172 to 174
34 | CC(=O)N1CCN(CC(=O)Nc2nc(-c3ccccc3)c(-c3ccc(=O)n(C(C)C)n3)s2)CC1 [Example 150, 2-(4-Acetyl-1-piperazinyl)-N-[5-(1-isopropyl-6-oxo-1,6-dihydro-3-pyridazinyl)-4-phenyl-1,3-thiazol-2-yl]acetamide] | 220 to 222
